In US7169591B1, “Preparation of enantio-specific epoxides” (priority 1999, dated 2007):
Values joined by “and” are separate entries in the source; they are usually repeats but may differ in a detail not shown here. Equal entries are not always repeated.

Key:
[1] = test system: E. coli (pRS202) expressing T4MO; assay: Alkene degradation assay, E. coli (pRS202) expressing T4MO; format: cell-based, Escherichia coli DH10B
Description: Escherichia coli DH10B containing the plasmid pRS202 (Pikus et al., Biochemistry, 35:9106–9119 (1996); Pikus et al., Biochemistry, 36:9283–9289 (1997)) was prepared in a similar manner except it was grown at 37° C. in LB media, and was resuspended to an OD550 of 4 in LB media with 0.3–1 mM IPTG to induce expression of T4MO.
(§1) To determine the range of alkenes that could be degraded by the toluene monooxygenase and the degradation kinetics of the toluene monooxygenases, 5-ml aliquots of the resuspended cultures were dispensed to 25-ml serum vials and crimp sealed with Teflon™ faced septa. Gaseous alkene substrates were added as pure compounds by using a gas-tight syringe, and other alkene substrates were added from stock solutions (20% in dimethylformamide). The amount of individual alkene substrates added were as follows: 1-butene, 2-butene, and 1,3-butadiene, 2.2 μM; epoxy butane, 1,3-butadiene monoxide, and epichlorohydrine, 8 μM; 1- and 2-pentene, 9 μM; hexene, 4 μM; octadiene, 4.5 μM; 2-chloropropene, 11 μM; and, 2,3-dichloropropene, 12 μM unless otherwise indicated. The serum vials were then placed horizontally on a rotary shaker operating at 100 rpm. During incubation the temperature was maintained between 20–22° C. for the Pseudomonads and at 37° C. for E. coli. The serum vials were periodically removed from the shaker and a 10–25 μl portion of the headspace gas was withdrawn through the septa and injected onto a gas chromatograph (GC) equipped with a 30 m Vocol column (Supelco Inc. Bellefonte, Pa.) maintained at 160° C., and a flame ionization detector. This allowed the monitoring of both the alkene compounds as well as the epoxide products. The same protocol was used to detect the formation of 1,2-butanediol and butadiene diepoxide, except that 1 μl of the culture media was injected onto the column rather than the headspace gas.

wild type organisms = assay: Alkene oxidation and epoxide detection (GC, PNBP), wild type organisms; format: cell-based; details: all the wild type strains
Description: as §1
The only epoxides relevant to this study that were commercially available were 1,3-butadiene mono-, and diepoxide. These were used in GC analyses to determine retention times and to quantitate the conversion of 1,3-butadiene to the corresponding epoxides. To verify that the observed peaks were epoxides, a modification of the method of van Hylckama et al. (van Hylckama et al., Appl. Environ. Microbiol., 62:3304–3312 (1996)) was used, whereby epoxides were conjugated with PNBP to form intensely colored adducts of the epoxides. Serum vials were prepared as before, except that prior to sealing the vials, Durham tubes were placed inside the vials, with the opening of the Durham tube extending out of the liquid. The substrate was then added and the vials were incubated with moderate shaking at a 45° angle to prevent the culture liquid from entering the Durham tube. The transformation of the alkenes was monitored by GC analysis. […] The vials were then allowed to incubate for 8 hours before they were opened and the epoxide containing PNBP withdrawn. The total volume of PNBP solution was combined with an equal volume of acetone-triethylamine (50:50) and mixed rapidly. Epoxide/PNBP adducts were detected by spectra analysis (400–700 nm).

Burkholderia cepacia G4 = assay: Alkene degradation assay, whole cells of Burkholderia cepacia G4 (T2MO); format: cell-based; details: G4; following 30 minutes incubation
From the text: (§2) Pseudomonas mendocina KR1 (Yen et al., J. Bacteriol., 173:5315–5327 (1991)), the T4MO mutant of KR1 Pseudomonas mendocina ENVpmx1 (McClay et al., The 97th Annual Meeting of ASM, Abstract K36, page 348 (1997)), Pseudomonas pickettii PKO1 (Byrne et al., Gene, 154:65–70 (1995)), Burkholderia cepacia G4 (Shields et al., Appl. Environ. Microbiol., 55:1624–1629 (1989)), Burkholderia sp. strain ENVBF1 (McClay et al., Appl. Environ. Microbiol., 62:2716–2722 (1996)), and Pseudomonas sp. strain ENVPC5 (McClay et al., 1996, supra) were cultured overnight at 30° C. in shake flasks containing basal salts medium (BSM; 10) supplemented with 0.4% sodium glutamate. Toluene was included in the vapor phase when induction of the toluene oxygenases was desired. Prior to substrate degradation assays the cultures were harvested by centrifugation and resuspended in BSM to an optical density at 550 nm (OD550) of 2, unless otherwise indicated. A standard curve of optical density vs. protein concentration for each strain was used to calculate the amount of protein per ml of the resuspended cultures.
as §1

[2] = test system: Pseudomonas sp. strain ENVPC5; assay: Alkene degradation assay, whole cells of Pseudomonas sp. strain ENVPC5 (T4MO); format: cell-based; details: following 30 minutes incubation
From the text: as §2, §1

[3] = test system: Pseudomonas mendocina ENVpmx1; assay: Alkene degradation assay, T4MO deficient strain Pseudomonas mendocina ENVpmx1; format: cell-based
From the text: as §2, §1

T4MO = assay: Induction of T4MO by alkenes and toluene (FIG. 14); format: cell-based; details: at 120 minutes
Description: The data points are the average of duplicate samples, with the range shown as error bars. The relative light units registered by the 2-pentene sample at 120 minutes was approximately 10^5.

[4] = test system: Pseudomonas mendocina KR1; assay: Alkene degradation assay, whole cells of Pseudomonas mendocina KR1 (T4MO); format: cell-based
From the text: as §2, §1

[5] = test system: Burkholderia sp. strain ENVBF1; assay: Alkene degradation assay, whole cells of Burkholderia sp. strain ENVBF1 (T4MO); format: cell-based; details: ENVBF1; following 30 minutes incubation
From the text: as §2, §1

[6] = test system: Pseudomonas pickettii PKO1 (T3MO); assay: Enantiomeric ratio of monoepoxides (chiral GC), strain PKO1; format: cell-based; details: KO1 (PKO1)
Description: (§3) To determine the ratio of R and S isomers of the epoxides formed from the oxidation of the alkenes, samples were analyzed for the presence of the epoxides and alkenes by gas chromatography as described above. When the epoxide concentration neared its maximum, or when the 80–90% of the substrate was degraded, the enantiomeric ratio of epoxides produced was determined by injecting a sample of the headspace gas onto a GC equipped with a chiral separation column (RT-BDEXSE; Restek, Inc., Bellefonte, Pa.) and a flame ionization detector. The column was maintained at 50° C.

[7] = test system: Pseudomonas mendocina KR1 (T4MO); assay: Enantiomeric ratio of monoepoxides (chiral GC), strain KR1; format: cell-based
Description: as §3

alkene monooxygenase = target: T1, alkene monooxygenase (Xanthobacter versatilis, UniProt O87082); details: cited from earlier work
T1 sequence (O87082 1-497): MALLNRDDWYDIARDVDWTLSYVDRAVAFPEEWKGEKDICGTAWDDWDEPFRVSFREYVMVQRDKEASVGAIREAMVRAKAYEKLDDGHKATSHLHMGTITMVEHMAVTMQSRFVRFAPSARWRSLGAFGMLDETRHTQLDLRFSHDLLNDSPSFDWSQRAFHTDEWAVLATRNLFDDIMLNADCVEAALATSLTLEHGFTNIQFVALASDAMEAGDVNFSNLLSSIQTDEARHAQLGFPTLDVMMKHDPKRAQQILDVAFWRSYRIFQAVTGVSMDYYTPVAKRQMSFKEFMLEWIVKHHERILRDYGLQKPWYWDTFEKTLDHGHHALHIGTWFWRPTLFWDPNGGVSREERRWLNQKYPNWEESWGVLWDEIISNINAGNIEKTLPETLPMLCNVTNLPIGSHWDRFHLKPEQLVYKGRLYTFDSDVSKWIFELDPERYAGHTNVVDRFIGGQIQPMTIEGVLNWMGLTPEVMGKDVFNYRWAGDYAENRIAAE

[8] = test system: Pseudomonas sp. strain ENVPC5; assay: Enantiomeric ratio of monoepoxides (chiral GC), strain ENVPC5; format: cell-based; details: PC5
Description: as §3

[9] = test system: Burkholderia sp. strain ENVBF1; assay: Enantiomeric ratio of monoepoxides (chiral GC), strain ENVBF1; format: cell-based
Description: as §3

[10] = test system: Burkholderia cepacia G4 (T2MO); assay: Enantiomeric ratio of monoepoxides (chiral GC), strain G4; format: cell-based
Description: as §3

[11] = target: soluble methane monooxygenase (MMO) (Methylosinus trichosporium, UniProt P27353); details: cited from earlier work
soluble methane monooxygenase (MMO), sequence (P27353 whole entry): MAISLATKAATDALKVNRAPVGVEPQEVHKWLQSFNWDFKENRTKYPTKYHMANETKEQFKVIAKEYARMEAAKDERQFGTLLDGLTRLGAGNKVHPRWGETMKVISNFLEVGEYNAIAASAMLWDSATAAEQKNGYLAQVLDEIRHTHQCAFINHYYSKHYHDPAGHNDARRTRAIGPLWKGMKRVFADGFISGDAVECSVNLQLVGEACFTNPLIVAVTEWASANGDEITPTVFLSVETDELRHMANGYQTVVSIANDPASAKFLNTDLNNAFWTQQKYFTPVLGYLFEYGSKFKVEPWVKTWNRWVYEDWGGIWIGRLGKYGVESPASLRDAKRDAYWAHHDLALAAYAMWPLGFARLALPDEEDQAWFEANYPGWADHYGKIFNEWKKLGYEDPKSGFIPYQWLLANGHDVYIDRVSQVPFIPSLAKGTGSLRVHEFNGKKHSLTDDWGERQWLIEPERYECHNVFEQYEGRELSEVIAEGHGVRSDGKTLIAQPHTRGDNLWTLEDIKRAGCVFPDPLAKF
soluble methane monooxygenase (MMO), sequence (P27354 whole entry partner): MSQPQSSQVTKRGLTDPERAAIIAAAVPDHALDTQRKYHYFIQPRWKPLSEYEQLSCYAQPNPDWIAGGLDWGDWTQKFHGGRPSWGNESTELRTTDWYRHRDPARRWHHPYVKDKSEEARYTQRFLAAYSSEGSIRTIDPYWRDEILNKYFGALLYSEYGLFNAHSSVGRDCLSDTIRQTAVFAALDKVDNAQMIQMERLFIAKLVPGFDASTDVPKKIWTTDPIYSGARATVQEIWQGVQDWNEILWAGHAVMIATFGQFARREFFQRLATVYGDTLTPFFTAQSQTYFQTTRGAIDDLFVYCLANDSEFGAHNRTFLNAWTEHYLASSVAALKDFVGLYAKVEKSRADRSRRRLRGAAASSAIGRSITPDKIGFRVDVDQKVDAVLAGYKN
soluble methane monooxygenase (MMO), sequence (P27355 whole entry partner): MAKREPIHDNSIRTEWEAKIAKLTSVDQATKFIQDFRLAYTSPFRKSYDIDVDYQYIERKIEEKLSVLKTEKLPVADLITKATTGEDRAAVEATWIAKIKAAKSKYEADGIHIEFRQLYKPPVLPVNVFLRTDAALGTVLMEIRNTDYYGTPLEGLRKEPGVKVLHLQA
soluble methane monooxygenase (MMO), sequence (P27356 whole entry partner): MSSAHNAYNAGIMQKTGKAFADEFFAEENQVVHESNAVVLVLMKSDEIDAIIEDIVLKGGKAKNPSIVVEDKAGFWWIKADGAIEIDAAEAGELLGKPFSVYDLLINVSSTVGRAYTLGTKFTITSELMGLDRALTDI

styrene monooxygenase = target: T2, styrene monooxygenase (Pseudomonas sp, UniProt O50214); details: cited from earlier work
T2 sequence (O50214 1-415): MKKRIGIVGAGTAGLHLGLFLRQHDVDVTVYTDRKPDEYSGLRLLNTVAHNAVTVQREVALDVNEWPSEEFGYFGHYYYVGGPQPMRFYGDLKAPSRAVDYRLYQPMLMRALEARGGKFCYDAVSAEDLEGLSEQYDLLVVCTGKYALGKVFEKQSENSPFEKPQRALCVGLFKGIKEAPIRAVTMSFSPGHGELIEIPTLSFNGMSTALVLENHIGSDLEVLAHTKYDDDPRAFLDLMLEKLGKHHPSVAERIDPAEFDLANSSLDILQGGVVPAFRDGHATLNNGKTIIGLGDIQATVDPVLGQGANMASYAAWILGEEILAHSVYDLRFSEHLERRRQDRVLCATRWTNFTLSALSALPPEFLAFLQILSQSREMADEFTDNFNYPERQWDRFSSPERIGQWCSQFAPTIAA

## CC=CCC [2-pentene]
[1]
  degradation by the clone of T4MO: degraded
Wild type organisms
  degradation: efficiently degraded
Burkholderia cepacia G4
  Specific activity of toluene monooxygenase, substrate degraded: 0.16 μM substrate degraded/minute/mg protein
[2]
  Specific activity of toluene monooxygenase, substrate degraded: 0.18 μM substrate degraded/minute/mg protein
[3]
  degradation compared with the wild type strains: more rapidly and to a greater extent than the wild type strains
T4MO
  induction of T4MO, relative light units: approximately 10^5 relative light units
[4]
  initial oxidation rate: 0.33 mM/min/mg protein
[4]; following 30 minutes incubation
  Specific activity of toluene monooxygenase, substrate degraded: 0.33 μM substrate degraded/minute/mg protein
[5]
  Specific activity of toluene monooxygenase, substrate degraded: 0.14 μM substrate degraded/minute/mg protein

## C=CCC [1-butene]
[6]
  monoepoxide formed, R enantiomer: 8.3%
  monoepoxide formed, S enantiomer: 92.7%
[7]
  monoepoxide formed, R enantiomer: 0%
Alkene monooxygenase
  R isomer formed: 94%
[8]
  monoepoxide formed, R enantiomer: 11% and 11.3%
  monoepoxide formed, S enantiomer: 89% and 88.7%
[9]
  monoepoxide formed, R enantiomer: 9.8%
  monoepoxide formed, S enantiomer: 90.2%
[10]
  monoepoxide formed, R enantiomer: 6.5%
  monoepoxide formed, S enantiomer: 93.5%

## C=CCCl [3-chloropropene]
Alkene monooxygenase
  (S) epoxide formed: 80%

## C=CC(C)C [3-methyl-butene]
[11]
  oxidation by MMO: unable to oxidize

## C=Cc1ccccc1 [styrene]
Styrene monooxygenase
  enantiomer excess of (S)-styrene oxide formed: > 99%

## C1=CCCCC1 [cyclohexene]
[11]
  oxidation by MMO: unable to oxidize
